Results: patent US6770654B2, “Indole derivatives and use thereof in medicines” (Toray Industries, Inc., priority 2000, dated 2004)
Where a name gives a salt, the structure may show the parent alone.

Assays:
[1] = molecular target: T1, δ opioid receptor (Mus musculus, UniProt P32300); assay: Mouse vas deferens (MVD): antagonism against the δ agonist DPDPE, pA2 by Schild method; type: cell-based
T1 construct: Each of the vas deferens isolated from the mice was hung in a Magnus tube; from tissue; host or cells: vas deferens of male ddy strain mice
T1 sequence (P32300 whole entry): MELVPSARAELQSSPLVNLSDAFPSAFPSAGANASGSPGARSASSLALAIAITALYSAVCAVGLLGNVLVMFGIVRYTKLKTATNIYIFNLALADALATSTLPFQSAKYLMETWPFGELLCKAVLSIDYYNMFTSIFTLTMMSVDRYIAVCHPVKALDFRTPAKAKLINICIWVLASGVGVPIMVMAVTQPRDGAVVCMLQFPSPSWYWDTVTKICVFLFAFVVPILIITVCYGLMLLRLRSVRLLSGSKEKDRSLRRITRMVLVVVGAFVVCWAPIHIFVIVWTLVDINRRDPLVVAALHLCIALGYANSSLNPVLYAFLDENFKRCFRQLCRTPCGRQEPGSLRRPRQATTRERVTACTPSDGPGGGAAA
Method: Using mouse vas deferens (MVD), the compounds were examined for antagonism against opioid receptor agonists, i.e., morphine (μ), DPDPE (δ), and U50,488H (κ).
Male ddy strain mice were used in this experiment. Each of the vas deferens isolated from the mice was hung in a Magnus tube which was maintained at 37° C., filled with a Krebes-Henseleit solution (NaCl 118 mM; KCl 4.7 mM; CaCl2 2.5 mM; KH2PO4 1.1 mM; NaHCO3 25 mM; glucose 11 mM), and aerated with 5% carbon dioxide and 95% oxygen. Electric stimulation was applied through upper and lower ring-shaped platinum electrodes at 0.1 Hz and 5.0 mS. Tissue contraction was recorded on a polygraph using an Isometric Transducer.
Morphine, DPDPE, and U50,488H were added in a cumulative manner to determine the IC50 values (concentration for 50% inhibition of contraction induced by electric stimulation). Next, 10 nM of a sample compound was added to the system beforehand, and 20 minutes later, morphine, DPDPE, and U50,488H were added in a cumulative manner. According to the above procedure, the ratio of the IC50 values of morphine, DPDPE, and U50,488H in the presence of the sample compound to that in its absence was determined, and the pA2 values were calculated in accordance with the Schild et al.'s method (Schild, H. O., Br. J. Pharamacol. Chemother. 4, 277 (1949)).

| SMILES | melting point | Kb [1] [nM] |
| --- | --- | --- |
| Oc1ccc2c3c1O[C@H]1c4c(c5cc(F)cc6c5n4CC[C@@H]6O)C[C@@]4(O)[C@@H](C2)N(CC2CC2)CC[C@]314 (as salt: methanesulfonate) [Compound 3, 17-cyclopropylmethyl-6,7-didehydro-4,5α-epoxy-8′-fluoro-5′,6′-dihydro-4′H-pyrrolo[3,2,1-ij]quinolino[2′,1′:6,7]-morphinan-3,6′β,14β-triol] | 240 °C (dec.) | – |
| Oc1ccc2c3c1O[C@H]1c4c(c5cc(F)cc6c5n4CC[C@@H]6O)C[C@@]4(O)[C@@H](C2)N(CC2CC2)CC[C@]314 [Compound 3, 17-cyclopropylmethyl-6,7-didehydro-4,5α-epoxy-8′-fluoro-5′,6′-dihydro-4′H-pyrrolo[3,2,1-ij]quinolino[2′,1′:6,7]-morphinan-3,6′β,14β-triol] | – | 3.98 |
| Oc1ccc2c3c1O[C@H]1c4c(c5c(O)c(F)cc6c5n4CCC6)C[C@@]4(O)[C@@H](C2)N(CC2CC2)CC[C@]314 (as salt: methanesulfonate) | 280 °C (dec.) | – |
